Experimental data published in patent US20130195815A1, “METHOD FOR LABELING INSULIN-SECRETING PANCREATIC BETA CELLS AND OBTAINING PURIFIED INSULIN-SECRETING PANCREATIC B-CELLS AND AN INSULIN REPORTED” (NORTH CAROLINA CENTRAL UNIVERSITY, priority 2011, published 2013).

System: INS-1 cells
Test: GSIS assay: release of PPI-mCherry reporter into conditioned media (relative fluorescence)
Type: cell-based, rat
Conditions: INS-1 cells transduced with PPI-mCherry, 2 h
Protocol: (HG—high glucose (25 mM): LG—low glucose (5.6 mM): Ex—10 nM: NF—nifedipine 10 μM, calcium channel blocker/inhibitor) (Y-axis=normalized fluorescent units—FLU).
The reporter system was tested in insulin secretion assays.
GSIS: INS-1 cells were transduced with PPI-mCherry and allowed to recover. […] Conditioned media was removed and spotted onto a membrane and relative fluorescence determined using an Odyssey CLx imager (Licor Corp).

PPI-mCherry: Genetically encoded preproinsulin-mCherry fluorescent protein reporter (SEQ ID NO: 1), delivered by pLenti vector
glucose stimulated release of the PPI-mCherry reporter (high vs low glucose): 1.7 fold
